“Also recorded” adds a separate entry of the source.
What was measured:
κ opioid receptor [1] = biological target: T1, κ opioid receptor (Cavia porcellus, UniProt P41144); test: antagonism of ethylketazocine in the GPI (Example 7); assay type: cell-based, guinea pig; conditions: ethylketazocine as agonist, read-out: Ke, κ (Table VII)
T1 construct: a strip of longitudinal muscle with the myenteric plexus attached was prepared; from tissue; host or cells: guinea pig ileum longitudinal muscle with myenteric plexus
Procedure: (§1) 1. Guinea Pig Ileal Longitudinal Muscle (GPI). Ilea from guinea pigs were taken approximately 10 cm from the ileocaecal junction, and a strip of longitudinal muscle with the myenteric plexus attached was prepared by method of Rang et al., Brit. J. Pharmacol., 22, 356 (1964), the disclosure of which is incorporated by reference herein. A 1 cm portion of this strip was then mounted between two platinum electrodes placed in a 10 ml organ bath and connected to an isometric transducer. Contractions were recorded on a polygraph. […] The organ bath was maintained at 36°-37° C. The longitudinal muscle strip was allowed to equilibrate with continuous stimulation for a minimum of 90 min.

μ opioid receptor [2] = biological target: T2, μ opioid receptor (Mus musculus, UniProt P42866); test: tail flick assay, antagonism of antinociception by μ agonist; assay type: in vivo, mice; conditions: BNTX 6.25 pmol/i.c.v./mouse
T2 construct: evaluated in mice using the tail flick assay; from tissue; host or cells: living mice (i.c.v. injection)
Procedure: (§2) The antagonist effect of BNTX on antinociceptin was evaluated in mice using the tail flick assay, in accord with the procedure of F. C. Tulunay et al., J. Pharmacol. Exp. Ther., 243, 91 (1987). At least three groups of ten mice were used to generate dose-response curves. A mouse was regarded as positive for antinociception if the latency to flick its tail was more than the control latency plus 3 S.D. of the mean reaction time of the group. The reaction times were determined at the peak time for antinociception after administration of various agonists. Intracerebroventricular (i.c.v.) injections were made in a volume of 5 μl by the method of T. J. Haley et al., Br. J. Pharmacol., 12, 12 (1957).
(§3) On Table VIII, the potencies are expressed as ED50 ratios, which represent the ED50 of the standard agonist administered subcutaneously in the presence of BNTX (6.25 pmol/i.c.v./mouse), divided by the ED50 of the standard agonist.

δ2 receptors = biological target: T3, δ2 receptors (Cavia porcellus, UniProt A0A286XTF2); test: binding to guinea pig brain membranes, [3H]DSLET
T3 construct: guinea pig brain membranes; from tissue; host or cells: guinea pig brain membranes
Procedure: (§4) Therefore, a better assessment of the δ subtype selectivity can be obtained from binding of brain membranes and from antagonism studies in mice. The binding of BNTX to guinea pig brain membranes was determined using the general method of L. L. Werling et al., J. Pharmacol. Exp. Ther., 233, 722 (1985), as modified by A. E. Takemori et al., J. Pharmacol. Exp. Ther., 246, 255 (1988). The radio-ligands employed were [^3 H]DPDPE ([D-Pen^2, D-Pen^5 ] enkephalin) for δ1receptors, [^3 H]DSLET([D-Ser^2 -Leus]enkephalin-Thr^6) for δ^2 receptors, [3H]DAMGO for μ receptors and U69593(trans-(±)-3,4-dichloro-N-methyl-N-[2-(lpyrididinyl)cyclohexyl]benzeneacetamide) for κ receptors.

κ opioid receptor [3] = biological target: T4, κ opioid receptor (Mus musculus, UniProt P33534); test: tail flick assay, antagonism of antinociception by U50488H; assay type: in vivo, mice; conditions: BNTX 6.25 pmol/i.c.v./mouse
T4 construct: evaluated in mice using the tail flick assay; from tissue; host or cells: living mice (i.c.v. injection)
Procedure: as §2, §3

μ receptors = μ receptors (Cavia porcellus, UniProt A0ACM8Q262); test: binding to guinea pig brain membranes, [3H]DAMGO
δ2 opioid receptor [4] = biological target: T5, δ2 opioid receptor (Mus musculus, UniProt P32300); test: tail flick assay, antagonism of antinociception by DSLET; assay type: in vivo, mice; design: evaluated in mice using the tail flick assay; from tissue; host or cells: living mice (i.c.v. injection); conditions: BNTX 6.25 pmol/i.c.v./mouse
Procedure: as §2, §3

δ2 opioid receptor [5] = biological target: T5, δ2 opioid receptor; test: antagonism of DSLET in smooth muscle; assay type: cell-based; design: Both vasa deferentia were dissected out of mice; from tissue; host or cells: smooth muscle preparation, inferred mouse vas deferens; conditions: Table VIII, read-out: Smooth Muscle Ke, DSLET (δ2)
From the text: (§5) Concentration-response curves were obtained in the absence (control) and the presence of the antagonist are expressed as IC50 values. […] Therefore, a high IC50 ratio represents a correspondingly high degree of antagonism at a particular receptor. […] Therefore, a low Ke represents a correspondingly high degree of binding at a particular receptor.

δ1 receptors = biological target: T6, δ1 receptors (Cavia porcellus, UniProt A0A286XTF2); test: binding to guinea pig brain membranes, [3H]DPDPE
T6 construct: guinea pig brain membranes; from tissue; host or cells: guinea pig brain membranes
Procedure: as §4

δ opioid receptor = biological target: T7, δ opioid receptor (Mus musculus, UniProt P32300); test: antagonism of DADLE on MVD preparations (Example 7); assay type: cell-based
T7 construct: Both vasa deferentia were dissected out of mice; from tissue; host or cells: mouse vas deferens (isolated, electrically stimulated)
Procedure: 2. Mouse Vas Deferens (MVD). […] The organ bath was maintained at 37° C.
as §5

μ opioid receptor [6] = biological target: μ opioid receptor (Cavia porcellus, UniProt A0ACM8Q262); test: antagonism of morphine in the GPI (Example 7); assay type: cell-based, guinea pig; conditions: morphine as agonist, read-out: Ke, μ (Table VII)
Procedure: as §1

δ1 opioid receptor = biological target: T8, δ1 opioid receptor (Mus musculus, UniProt P32300); test: antagonism of DPDPE in smooth muscle; assay type: cell-based; conditions: Table VIII, read-out: Smooth Muscle Ke, DPDPE (δ1)
T8 construct: Both vasa deferentia were dissected out of mice; from tissue; host or cells: smooth muscle preparation, inferred mouse vas deferens
From the text: as §5

renal allograft = conditions: in words; cited from earlier work
mu opioid receptors [7] = conditions: read-out: Ke, M (morphine); GPI, agonist morphine; antagonist 100 or 200 nM, 15 min; cited from earlier work
[8] = tested on: mixed lymphocyte responses; conditions: cited from earlier work
mu opioid receptors [9] = conditions: 20 mg/kg s.c.; in words; cited from earlier work
kappa opioid receptors = conditions: 20 mg/kg s.c.; in words; cited from earlier work
[10] = tested on: splenic MNC (T and non-T cells); test: depressed AMLR of splenic cells from mice infected with mCMV; assay type: cell-based; conditions: for reversal of AMLR suppressed by CMV 10^-4: AMLR suppressed 42%; for reversal of AMLR suppressed by CMV 10^-2: AMLR suppressed 20%
Procedure: Mice were injected i.p. with serial 10-fold dilutions of a stock mCMV solution. Dilutions of stock virus ranged from 10^-2 to 10^-6. Mice were sacrificed after 10 days of infection. Control mice were injected with saline.
Splenic MNC from CMV-infected and uninfected mice were purified by density gradient centrifugation on LSM, as described above for the rat splenic MNC. T and non-T cell fractions were separated by nylon wool columns as disclosed by M. H. Julius et al., Eur. J. Immunol., 3, 645 (1973). The T-enriched cells were used as responder cells. The non-T cells were treated with mitomycin-C to stop their proliferation, as described by K. M. Linner et al., Endocrinol., 128, 717 (1991) and used as stimulator cells. Autologous cell cultures were then set up, with equal numbers (2×10^5) of responder T and stimulator non-T cells being cultured in the 96-well microtiter plates. Cells were cultured for 5 days. To some wells, NTI at 10^-10, 10^-12 or 10^-14 M, concentrations determined to be optimal from the rat AMLR studies, was added for the duration of the culture period. ^3 H-thymidine was added to each well for the last 18 hr of incubation, and the cultures were harvested and counted as described above.

delta opioid receptors = conditions: 20 mg/kg s.c.; in words; cited from earlier work
immune function = conditions: both in vivo and in vitro; cited from earlier work
[11] = tested on: splenic mononuclear cells (MNC); test: depressed AMLR of splenic MNC from rats infected with rat coronavirus; assay type: cell-based; conditions: FIG. 2
Procedure: Rats were anesthetized with a mixture of 8 mg/ml keta/nine and 2 mg/ml acepromazine (dose=0.1 ml/100 g body weight) and the spleens were removed aseptically. The animals were exsanguinated while under anesthesia. Splenic MNC were released from the surrounding connective tissue by dispersing through a wire mesh. The red blood cells were removed by density gradient centrifugation on ficol-hypaque (Lymphocyte Separation Medium, LSM, Organon Tecknika, Durham, N.C.). The purified MNC were washed in Hanks Balanced Salt Solution containing 1% gelatin and 2 mM EDTA and resuspended in RPMI-1640 medium containing 5% Fetal Bovine Serum (FBS), 100 U/ml penicillin, 100 ug/ml streptomycin and 5×10^-5 M 2-mercaptoethanol. In some experiments, TCM™, a defined medium supplement (CELOX, Minneapolis, Minn.), was used instead of FBS.
Purified MNC were placed in 96-well round bottom plates at 2×10^5cells/well in a total volume of 0.2 ml and incubated for 5 days at 37° C. […] The cells were then harvested onto glass fiber filter paper and counted in a Beckman (Fullerton, Calif.) scintillation counter. The results are calculated as the mean counts per minute of triplicate wells, and are expressed as percent of control (cpm suppressed AMLR/cpm control AMLR). […]

[12] = tested on: allogeneic murine spleen cells; conditions: cited from earlier work
[13] = both in vivo and in vitro; cited from earlier work
[14] = tested on: enkephalin-binding receptor on cells of the immune system; conditions: in words; cited from earlier work

T6 sequence (A0A286XTF2 1-366): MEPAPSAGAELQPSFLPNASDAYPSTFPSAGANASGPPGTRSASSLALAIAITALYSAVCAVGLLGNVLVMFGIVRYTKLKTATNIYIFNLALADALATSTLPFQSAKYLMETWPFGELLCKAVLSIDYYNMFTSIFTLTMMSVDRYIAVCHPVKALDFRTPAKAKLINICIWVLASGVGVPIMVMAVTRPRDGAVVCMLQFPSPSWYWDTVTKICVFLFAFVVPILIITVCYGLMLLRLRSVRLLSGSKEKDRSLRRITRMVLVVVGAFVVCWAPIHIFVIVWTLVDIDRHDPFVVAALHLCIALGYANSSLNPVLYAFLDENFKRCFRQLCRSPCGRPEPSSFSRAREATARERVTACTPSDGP
T7 sequence (P32300 whole entry): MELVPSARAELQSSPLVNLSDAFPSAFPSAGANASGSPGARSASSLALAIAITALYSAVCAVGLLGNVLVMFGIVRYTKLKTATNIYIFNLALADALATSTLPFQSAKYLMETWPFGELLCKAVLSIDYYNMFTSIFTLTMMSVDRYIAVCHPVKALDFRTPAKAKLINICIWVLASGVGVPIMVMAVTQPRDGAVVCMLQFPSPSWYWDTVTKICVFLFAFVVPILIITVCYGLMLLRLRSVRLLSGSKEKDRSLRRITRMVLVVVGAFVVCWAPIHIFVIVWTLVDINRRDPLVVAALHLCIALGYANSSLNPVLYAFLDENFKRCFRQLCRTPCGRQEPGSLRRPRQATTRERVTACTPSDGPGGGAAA
T5 sequence (P32300 whole entry): as above
T2 sequence (P42866 whole entry): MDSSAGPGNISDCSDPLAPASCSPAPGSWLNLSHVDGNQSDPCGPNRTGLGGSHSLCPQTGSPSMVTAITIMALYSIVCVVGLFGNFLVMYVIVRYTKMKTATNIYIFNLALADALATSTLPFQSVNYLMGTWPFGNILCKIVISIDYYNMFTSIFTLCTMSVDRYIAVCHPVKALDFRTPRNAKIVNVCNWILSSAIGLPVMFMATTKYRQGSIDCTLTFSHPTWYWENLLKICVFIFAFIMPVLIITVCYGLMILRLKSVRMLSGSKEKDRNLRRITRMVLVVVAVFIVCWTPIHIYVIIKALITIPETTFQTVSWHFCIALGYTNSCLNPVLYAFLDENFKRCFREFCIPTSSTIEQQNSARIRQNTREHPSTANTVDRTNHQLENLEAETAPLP
T4 sequence (P33534 whole entry): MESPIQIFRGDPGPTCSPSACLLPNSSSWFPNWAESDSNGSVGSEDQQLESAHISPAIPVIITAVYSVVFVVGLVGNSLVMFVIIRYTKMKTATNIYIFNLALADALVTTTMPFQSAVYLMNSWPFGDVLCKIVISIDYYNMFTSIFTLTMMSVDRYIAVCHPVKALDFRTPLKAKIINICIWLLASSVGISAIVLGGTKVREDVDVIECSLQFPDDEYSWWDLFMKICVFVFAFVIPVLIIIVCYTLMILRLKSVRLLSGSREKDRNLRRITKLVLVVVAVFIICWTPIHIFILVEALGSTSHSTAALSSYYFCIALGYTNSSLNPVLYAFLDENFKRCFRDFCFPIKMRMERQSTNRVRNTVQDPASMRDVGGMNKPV
T1 sequence (P41144 whole entry): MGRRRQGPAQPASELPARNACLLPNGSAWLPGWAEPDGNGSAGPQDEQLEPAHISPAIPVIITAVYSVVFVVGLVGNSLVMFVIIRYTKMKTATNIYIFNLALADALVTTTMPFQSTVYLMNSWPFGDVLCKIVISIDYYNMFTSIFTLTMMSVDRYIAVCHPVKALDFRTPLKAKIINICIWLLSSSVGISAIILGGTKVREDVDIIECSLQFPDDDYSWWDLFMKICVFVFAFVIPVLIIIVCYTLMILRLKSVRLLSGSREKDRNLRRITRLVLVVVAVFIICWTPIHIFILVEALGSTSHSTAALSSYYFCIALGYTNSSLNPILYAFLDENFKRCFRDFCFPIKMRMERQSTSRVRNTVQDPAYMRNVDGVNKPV
Chain of μ receptors (A0ACM8Q262 1-400): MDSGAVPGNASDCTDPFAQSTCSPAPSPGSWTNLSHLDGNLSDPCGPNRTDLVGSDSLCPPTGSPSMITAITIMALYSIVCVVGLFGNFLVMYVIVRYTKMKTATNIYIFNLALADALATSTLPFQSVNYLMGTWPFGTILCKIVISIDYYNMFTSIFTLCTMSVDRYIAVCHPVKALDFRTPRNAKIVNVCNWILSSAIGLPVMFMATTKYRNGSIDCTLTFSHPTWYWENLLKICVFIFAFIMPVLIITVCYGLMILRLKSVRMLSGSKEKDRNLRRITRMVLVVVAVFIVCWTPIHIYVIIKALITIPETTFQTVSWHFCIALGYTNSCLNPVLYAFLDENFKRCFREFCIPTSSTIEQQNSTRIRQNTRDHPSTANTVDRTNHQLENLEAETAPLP
Chain of μ opioid receptor (Cavia porcellus, UniProt A0ACM8Q262) (A0ACM8Q262 1-400): as above
T3 sequence (A0A286XTF2 1-366): as the sequence (A0A286XTF2 1-366) above
T8 sequence (P32300 whole entry): as the sequence (P32300 whole entry) above

O=C1C(=Cc2ccccc2)C[C@@]2(O)[C@H]3Cc4ccc(O)c5c4[C@@]2(CCN3CC2CC2)[C@H]1O5 [BNTX, 7-Benzylidene-7-dehydronaltrexone]
Kb (κ opioid receptor [1]): 100 nM | ED50 Ratio ("Potency Ratio"), DAMGO row (μ opioid receptor [2]): 0.88 | shift of the morphine dose-response curve (μ opioid receptor [2]; in words): not shifted significantly | Ki (δ2 receptors): 10.8 nM | ED50 Ratio ("Potency Ratio"), U50488H (κ opioid receptor [3]): 1.2 | shift of the U50488H dose-response curve (κ opioid receptor [3]; in words): not shifted significantly | Ki (μ receptors): 13.3 nM | ED50 Ratio ("Potency Ratio"), DSLET (δ2 opioid receptor [4]): 0.91 | shift of the DSLET dose-response curve (δ2 opioid receptor [4]; in words): not shifted significantly | Kb (δ2 opioid receptor [5]): 2.1 nM | δ1 selectivity in words (δ1 receptors; binding): highly selective for δ1 receptor sites; also recorded: first δ1 opioid receptor subset-selective antagonist | Ki (δ1 receptors; guinea pig brain membranes): 0.1 nM | binding ratio, Ki(δ2)/Ki(δ1) (δ1 receptors; guinea pig brain membranes): about 100 | Kb (δ opioid receptor): 2.9 nM | Ke Ratio κ/δ (δ opioid receptor; GPI ethylketazocine / MVD DADLE): 35 | Ke Ratio μ/δ (δ opioid receptor; GPI morphine / MVD DADLE): 2.9 | Ke ratios compared with NTI and naltrexone, in words (δ opioid receptor; Table VII data): less than those of the standard δ agonist NTI, but greater than those of naltrexone | receptor selectivity in words (δ opioid receptor; Table VII data): δ-selective antagonist | Kb (μ opioid receptor [6]): 8.3 nM | Kb (δ1 opioid receptor): 5.2 nM

Oc1ccc2c3c1O[C@H]1c4[nH]c5ccccc5c4C[C@@]4(O)[C@@H](C2)N(CC2CC2)CC[C@]314 [Compound 1, 17-(cyclopropylmethyl)-6,7-dehydro-3,14β-dihydroxy-4,5α-epoxy-6,7-2',3'-indolmorphinan]
allograft survival (renal allograft): prolong allograft survival | Kb (mu opioid receptors [7]): 29.4 nM | effectiveness compared with cyclosporine A (CsA) ([8]; in both in vitro responses): less effective than cyclosporine A (CsA) | allogeneic and xenogeneic mixed lymphocyte responses ([8]; in vitro, in words): suppress in vitro allogeneic and xenogeneic mixed lymphocyte responses | antagonism of the effect of morphine (mu opioid receptors [9]): without significantly antagonizing | antagonism of the effect of U50488H (kappa opioid receptors): without significantly antagonizing | reversal of the suppressed AMLR caused by CMV infection ([10]; FIGS. 4A and 4B): can reverse the suppressed AMLR | reversal of AMLR suppressed by CMV 10^-4 ([10]; NTI 10^-10 M): partially | reversal of AMLR suppressed by CMV 10^-2 ([10]; NTI 10^-12 and 10^-10 M): completely reversed | reversal of AMLR suppressed by CMV 10^-4 ([10]; NTI 10^-14 M-10^-12 M): reversed completely | reversal of AMLR suppressed by CMV 10^-2 ([10]; NTI 10^-14 M): not by NTI at 10^-14 M | block of writhing inhibition due to DSLET (delta opioid receptors): effectively blocked | immunosuppression (immune function): immunosuppressive | reversal of depressed AMLR [11]: reversed | MLR suppression [12]: strongly suppresses the MLR | toxicity [13]: non-toxic | Kb (μ opioid receptor [6]): […]

C=CCN1CC[C@]23c4c5ccc(O)c4O[C@H]2C(=O)CC[C@@]3(O)[C@H]1C5 [naloxone]
block of many of the effects of enkephalins on immune function [14]: blocked
